Data on 17 molecules can be found in patent US9265253B2, “Use of macrocyclic picolinamides as fungicides” (DOW AGROSCIENCES LLC, priority 2013, dated 2016).

SMILES strings stand for the structures. Where two headings read alike, the source gives them in different places.

The test system of assay [1] is Mycosphaerella graminicola; Anamorph: Septoria tritici. The assay is described as follows: Leaf Blotch of Wheat (SEPTTR) disease control. Format: in vivo. Conditions: Zymoseptoria tritici; for pest or weed control at 100 ppm: rate 100 ppm; for pest or weed control at 121.5 g/ha: rate 121.5 g/H. A digest of the protocol: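 Wheat seedlings (Yuma, first leaf emerged) were sprayed to run-off with compound in acetone/water (1:9, 110 ppm Triton X-100) and inoculated with Septoria tritici spores before or after treatment. Disease severity (0–100%) was scored once untreated first leaves were fully symptomatic; control was calculated relative to untreated plants.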

Assay [2] deals with Puccinia triticina; Synonym: Puccinia recondite f. Sp. Tritici. The assay is described as follows: Wheat Brown Rust (PUCCRT) disease control. The following applies: Puccinia triticina, topical; for pest or weed control at 100 ppm: rate 100 ppm; for pest or weed control at 121.5 g/ha: rate 121.5 g/H. Format: in vivo. A digest of the protocol:
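Brown rust on first-leaf Yuma wheat: spore inoculation before or after spray application (acetone/Triton X-100 solution, or EC with Trycol in track spray), overnight 100% RH at 22 °C, disease developed at 24 °C. Severity scored 0–100% and converted to percent control against untreated.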

[3] abbreviates: 24 h, 1 Day Protectant, read-out: SEPTTR 1 DP disease control.
Setting [4] is: 72 h, 3 Day Curative, read-out: SEPTTR 3 DC disease control.
The mark [5] stands for this setting: 24 h, 1 Day Protectant, read-out: PUCCRT 1 DP disease control.
Where [6] appears, read: 72 h, 3 Day Curative, read-out: PUCCRT 3 DC disease control.

For the molecule `COc1ccnc(C(=O)N[C@H]2CCC[C@H](CCF)[C@@H](OCC(C)C)[C@H](C)OC2=O)c1O` [Compound F43], the pest or weed control at 100 ppm in assay [1] (setting [3]), in assay [1] (setting [4]), in assay [2] (setting [5]) and in assay [2] (setting [6]) was 80 to 100% each time.
Consider `COc1ccnc(C(=O)N[C@H]2CCC[C@H](CCBr)[C@@H](Oc3ccccc3)[C@H](C)OC2=O)c1OCOC(C)=O` [Compound F135], for which the pest or weed control at 100 ppm in assay [1] (setting [3]), in assay [1] (setting [4]), in assay [2] (setting [5]) and in assay [2] (setting [6]) was 80 to 100% throughout.
Take `CCOCC(=O)OCOc1c(OC)ccnc1C(=O)N[C@H]1CCC[C@H](CCC(C)C)[C@@H](Oc2ccccc2)[C@H](C)OC1=O` [Compound F158]: the pest or weed control at 100 ppm in assay [1] (setting [3]), in assay [1] (setting [4]), in assay [2] (setting [5]) and in assay [2] (setting [6]) was 80 to 100% throughout. In addition, the pest or weed control at 121.5 g/ha in assay [1] (setting [3]) lay in the range of 80 to 100%; in assay [1] (setting [4]), 80 to 100%; in assay [2] (setting [5]), 80 to 100%; in assay [2] (setting [6]), 0 to 80%.
With `CC[C@H]1CCC[C@H](NC(=O)c2nccc(OC)c2OCOC(C)=O)C(=O)O[C@@H](C)[C@@H]1OCC(C)C` [Compound F133], the pest or weed control at 100 ppm in assay [1] (setting [3]), in assay [1] (setting [4]), in assay [2] (setting [5]) and in assay [2] (setting [6]) was 80 to 100% throughout. The pest or weed control at 121.5 g/ha in assay [1] (setting [3]), in assay [1] (setting [4]), in assay [2] (setting [5]) and in assay [2] (setting [6]) was 80 to 100% throughout.
On to `COc1ccnc(C(=O)N[C@H]2CCC[C@H](Cc3ccc(F)cc3)[C@@H](OC(=O)C3CCCC3)[C@H](C)OC2=O)c1O` [Compound F16], for which the pest or weed control at 100 ppm was in the range of 80 to 100% in assay [1] (setting [3]), 0 to 80% in assay [1] (setting [4]), 80 to 100% in assay [2] (setting [5]) and 0 to 80% in assay [2] (setting [6]).
In the case of `COc1ccnc(C(=O)N[C@H]2CCC[C@H](CCSC)[C@@H](OCC(C)C)[C@H](C)OC2=O)c1O` [Compound F46], the pest or weed control at 100 ppm in assay [1] (setting [3]) was 0 to 80%; in assay [1] (setting [4]), 80 to 100%; in assay [2] (setting [5]), 80 to 100%; in assay [2] (setting [6]) it was 80 to 100%.
On to `CCOCC(=O)OCOc1c(OC)ccnc1C(=O)N[C@H]1CCC[C@H](Cc2ccc(F)cc2)[C@@H](OCC(F)F)[C@H](C)OC1=O` [Compound F169], for which the pest or weed control at 100 ppm in assay [1] (setting [3]) lay in the range of 80 to 100%; in assay [1] (setting [4]), 0 to 80%; in assay [2] (setting [5]) it was 80 to 100%; in assay [2] (setting [6]), 80 to 100%. The pest or weed control at 121.5 g/ha in assay [1] (setting [3]), in assay [1] (setting [4]), in assay [2] (setting [5]) and in assay [2] (setting [6]) was 80 to 100% throughout.
Consider `COc1ccnc(C(=O)N[C@H]2CCC[C@H](CCC(C)C)[C@@H](Oc3ccccc3)[C@H](C)OC2=O)c1OCOC(=O)C(C)C` [Compound F147], for which the pest or weed control at 100 ppm in assay [1] (setting [3]), in assay [1] (setting [4]), in assay [2] (setting [5]) and in assay [2] (setting [6]) was 80 to 100% throughout. Besides, the pest or weed control at 121.5 g/ha in assay [1] (setting [3]) lay within 80 to 100%; in assay [1] (setting [4]), 80 to 100%; in assay [2] (setting [5]), 80 to 100%; in assay [2] (setting [6]), 0 to 80%.
Consider `CCCO[C@@H]1[C@@H](CC2CCCC2)CCC[C@H](NC(=O)c2nccc(OC)c2OC(C)=O)C(=O)O[C@H]1C` [Compound F74], for which the pest or weed control at 100 ppm in assay [1] (setting [3]), in assay [1] (setting [4]), in assay [2] (setting [5]) and in assay [2] (setting [6]) was 80 to 100% each time. The pest or weed control at 121.5 g/ha in assay [1] (setting [3]) lay in the range of 80 to 100%; in assay [1] (setting [4]), 80 to 100%; in assay [2] (setting [5]) it was 80 to 100%; in assay [2] (setting [6]) it was 0 to 80%.
In the case of `COc1ccc(C[C@H]2CCC[C@H](NC(=O)c3nccc(OC)c3O)C(=O)O[C@@H](C)[C@@H]2OCC2CC2)cc1` [Compound F30], the pest or weed control at 100 ppm in assay [1] (setting [3]), in assay [1] (setting [4]), in assay [2] (setting [5]) and in assay [2] (setting [6]) was 80 to 100% each time.
Turning to `COc1ccnc(C(=O)N[C@H]2CCC[C@H](Cc3ccccc3)[C@@H](OCC3CC3)[C@H](C)OC2=O)c1O` [Compound F19], the pest or weed control at 100 ppm in assay [1] (setting [3]), in assay [1] (setting [4]), in assay [2] (setting [5]) and in assay [2] (setting [6]) was 80 to 100% throughout.
As for `COc1ccnc(C(=O)N[C@H]2CCC[C@H](CCC(C)C)[C@@H](OC3CCCC3)[C@H](C)OC2=O)c1OCOC(C)=O` [Compound F94], the pest or weed control at 100 ppm in assay [1] (setting [3]), in assay [1] (setting [4]), in assay [2] (setting [5]) and in assay [2] (setting [6]) was 80 to 100% each time.
With `COc1ccnc(C(=O)N[C@H]2CCC[C@H](CC3CCCC3)[C@@H](Oc3ccccc3)[C@H](C)OC2=O)c1O` [Compound F27], the pest or weed control at 100 ppm in assay [1] (setting [3]), in assay [1] (setting [4]), in assay [2] (setting [5]) and in assay [2] (setting [6]) was 80 to 100% each time.
`COc1ccc(C[C@H]2CCC[C@H](NC(=O)c3nccc(OC)c3O)C(=O)O[C@@H](C)[C@@H]2Oc2ccccc2)cc1` [Compound F26]: the pest or weed control at 100 ppm lay in the range of 80 to 100% in assay [1] (setting [3]), 80 to 100% in assay [1] (setting [4]), 80 to 100% in assay [2] (setting [5]) and 0 to 80% in assay [2] (setting [6]).
As to `COc1ccnc(C(=O)N[C@H]2CCC[C@H](CCSC)[C@@H](OCC(C)C)[C@H](C)OC2=O)c1OCOC(C)=O` [Compound F131], the pest or weed control at 100 ppm in assay [1] (setting [3]), in assay [1] (setting [4]), in assay [2] (setting [5]) and in assay [2] (setting [6]) was 80 to 100% throughout. The pest or weed control at 121.5 g/ha in assay [1] (setting [3]) lay within 0 to 80%; in assay [1] (setting [4]), 80 to 100%; in assay [2] (setting [5]), 80 to 100%; in assay [2] (setting [6]) it was 80 to 100%.
Turning to `COc1ccnc(C(=O)N[C@H]2CCC[C@H](CC(F)F)[C@@H](Oc3ccccc3)[C@H](C)OC2=O)c1O` [Compound F53], the pest or weed control at 100 ppm in assay [1] (setting [3]) fell in the range of 80 to 100%; in assay [1] (setting [4]), 0 to 80%; in assay [2] (setting [5]), 80 to 100%; in assay [2] (setting [6]), 80 to 100%.
As for `COCC[C@H]1CCC[C@H](NC(=O)c2nccc(OC)c2O)C(=O)O[C@@H](C)[C@@H]1OCC(C)C` [Compound F47], the pest or weed control at 100 ppm in assay [1] (setting [3]), in assay [1] (setting [4]), in assay [2] (setting [5]) and in assay [2] (setting [6]) was 80 to 100% throughout.
